Test [1] deals with norepinephrine uptake. Briefly: Biogenic amine uptake inhibition in rat brain synaptosomes, norepinephrine. The format is biochemical, rat (Sprague-Dawley). The conditions noted are these: tritiated amine 0.1 μM, 37° C., 4 minutes; read-out: Biogenic Amine Uptake Inhibition IC50 Norephinephrine. The protocol:
(§1) The ability of compounds of the invention to inhibit biogenic amine uptake is determined as outlined below.
(§2) Sprague-Dawley derived rats of either sex, weighing about 180-250 g, were killed by decapitation. The brains were immediately removed, placed on a glass plate chilled over crushed ice and dissected according to a modification of the method of Glowinski and Iversen (J. Neurochem. 13, 655-669, 1966). First, the rhombencephalon was separated by transverse section and discarded. The remaining tissue was bisected by a midline sagittal cut. The hypothalamus was removed using the anterior and posterior reference points, respectively. The hippocampus was peeled away and discarded and the striata were exposed and removed. Frontal cortical tissue was dissected from remaining brain structures. […] The tissues were placed in a cold Potter-Elvehjem glass homogenizer with 5 (cortex) or 10 (hypothalamus) and 20 (striatum) volumes of ice-cold 0.32M sucrose, pH 7.0 and homogenized by hand. The homogenate was centrifuged at 2500 rpm in a GLC centrifuge for 10 minutes in a refrigerated room. The supernatant fraction containing the synaptosomes was decanted, mixed thoroughly, and kept on crushed ice for use in the uptake studies.

Test [2] has as its system serotonin uptake. Briefly: Biogenic amine uptake inhibition in rat brain synaptosomes, serotonin. The format is biochemical, rat (Sprague-Dawley). The conditions noted are these: tritiated amine 0.1 μM, 37° C., 4 minutes. The protocol: as §1, §2
The test system of test [3] is dopamine uptake. Description: Biogenic amine uptake inhibition in rat brain synaptosomes, dopamine. The conditions noted are these: tritiated amine 0.1 μM, 37° C., 4 minutes. The format is biochemical, rat (Sprague-Dawley). The protocol:
as §1, §2

In test [4] the test system is intraocular pressure of rabbits. Briefly: Effects of topically administered compounds on intraocular pressure of rabbits. It counts as in vivo, rabbit (New Zealand albino). The following applies: 0.3% soln., topical to cornea. The protocol: The effect on intraocular pressure of the compounds of the invention can be determined in rabbits by using the following method.
a. Method The intraocular pressure lowering effects of the compounds were evaluated in unanesthetized, male albino, New Zealand rabbits weighing 2.0 to 2.5 kg. The rabbits were placed in Plas Labs restraining devices for the duration of the experiment. Intraocular pressure (IOP) was measured with a Bausch and Lomb Applamatic Tonometer and recorded as the average of three individual readings at each time point in the experiment. Baseline IOP values were established at three time points separated by 30 minutes. Each compound or vehicle was applied topically to the cornea in a volume of 0.1 ml to one eye in each six rabbits. The contralateral eye was untreated. IOP was recorded at 5, 15, 30, 60 and 90 minutes after dosing.

Test [5] has as its target T1, alpha-1-receptor (Rattus norvegicus, UniProt P15823).
T1 construct: rat liver homogenates; from tissue; host or cells: rat liver homogenate
T1 sequence (P15823 1-515): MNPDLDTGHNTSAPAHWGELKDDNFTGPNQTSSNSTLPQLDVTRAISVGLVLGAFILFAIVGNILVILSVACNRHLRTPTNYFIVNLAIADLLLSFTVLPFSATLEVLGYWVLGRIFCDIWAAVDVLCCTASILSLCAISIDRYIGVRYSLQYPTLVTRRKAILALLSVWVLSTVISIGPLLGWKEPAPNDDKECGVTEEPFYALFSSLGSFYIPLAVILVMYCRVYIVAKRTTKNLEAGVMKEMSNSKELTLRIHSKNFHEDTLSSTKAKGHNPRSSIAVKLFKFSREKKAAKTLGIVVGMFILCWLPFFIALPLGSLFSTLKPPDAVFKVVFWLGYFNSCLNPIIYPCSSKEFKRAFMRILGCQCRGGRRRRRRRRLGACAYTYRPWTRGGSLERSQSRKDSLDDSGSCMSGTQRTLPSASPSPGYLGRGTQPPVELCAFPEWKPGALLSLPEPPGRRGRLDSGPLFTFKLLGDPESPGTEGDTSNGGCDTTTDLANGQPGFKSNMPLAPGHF
Description: Radioligand binding, alpha-1 adrenoceptor, rat liver homogenates, [3H]-prazosin. The conditions noted are these: rat liver homogenates, [3H]-prazosin; read-out: Ki alpha-1. The protocol:
(§3) The compounds were assessed for alpha-adrenergic receptor subtype selectivity by use of radioligand binding techniques as described previously (DeBernardis et.al. J. Med. Chem. 28, 1398 (1985)).

Test [6] concerns alpha-2-receptor. Briefly: Radioligand binding, alpha-2 adrenoceptor, rat cerebral cortices, [3H]-rauwolscine. The conditions noted are these: ratio Ki alpha-1/Ki alpha-2. The protocol:
as §3

The results in this text go back to patent publication US5086074A, “1-aminomethyl-1,2,3,4-tetrahydronaphthalenes” (Abbott Laboratories, priority 1990, dated 1992).

Where a name gives a salt, the structure may show the parent alone.

For the molecule “8-Fluoro-5,6-methylenedioxy-1-(3-phenylpyrrolidino-1-methyl) tetralin hydrochloride [Example 160]”, the IC50 (in general, the concentration that gives 50% inhibition) in test [1] amounted to 991 nM; in test [2], 1840 nM; in test [3], 2930 nM.
As to `CN(CCc1ccccc1)CC1CCCc2cc(O)ccc21` (stereo not shown) [11 (HCl salt)], the “% Change in Intraocular Pressure After Treatment Compared to Untreated Eye in Rabbits” value in test [4] (5 minutes) was -38%; in test [4] (15 minutes) it was -55%; in test [4] (30 minutes) it was -54%; in test [4] (60 minutes) it was -44%; in test [4] (90 minutes), -20%.
As for `COc1ccc2c(c1)CCCC2CN(C)CCC1CCCS1` (stereo not shown) [Example 6h, 1-((N-methylamino)methyl-N-(2-(2-tetrahydrothienyl)ethyl)) 6-methoxy tetralin hydrochloride], the Ki (commonly a dissociation constant, usually derived from enzyme kinetics or from competition with a known ligand) in test [5] was found to be 1510 nM. Also, in test [6], the “alpha-2 - Selectivity Ki alpha-1/Ki alpha-2” value is given as 430.
Regarding `CN(CCc1cccc(F)c1)CC1CCCc2cc(O)ccc21` (stereo not shown) [Example 10, 1-((N-Methylamino)methyl-N-(2-(m-fluorophenyl)ethyl))-6-hydroxy tetralin hydrochloride], the “% Change in Intraocular Pressure After Treatment Compared to Untreated Eye in Rabbits” value is given as -45% in test [4] (5 minutes); -31% in test [4] (15 minutes); -25% in test [4] (30 minutes); -36% in test [4] (60 minutes); -23% in test [4] (90 minutes).
For the molecule `COc1ccc(C)c2c1CCCC2CN(C)CCc1cccs1` (stereo not shown) [Example 36, 1-((N Methylamino)methyl-N-(2-(2-thienyl)ethyl))-5-methoxy-8-methyl tetralin hydrochloride], the Ki in test [5] came out at 655 nM. The “alpha-2 - Selectivity Ki alpha-1/Ki alpha-2” value in test [6] is on record as 95.
With `CCOc1ccc2c(c1)CCCC2CN(C)CCc1cccc(N)c1` (stereo not shown) [Example 69, 1-((N-Methylamino)methyl-N-(2-(m-aminophenyl)ethyl))6-ethoxy tetralin dihydrochloride], the Ki in test [5] turned out to be 1270 nM. Moreover, in test [6], the “alpha-2 - Selectivity Ki alpha-1/Ki alpha-2” value is 98.
Taken in the same sequence, the figures for `COc1ccc2c(c1)CCCC2CN1CCC(c2ccccc2)C1` (stereo not shown) [Example 121, 6-Methoxy-1-(3-phenylpyrrolidino-1-methyl) tetralin hydrochloride] were 95 nM and 95.
On the same counts, the results for `CN(CCc1cccs1)CC1CCCc2c(Cl)cccc21` (stereo not shown) [Example 129, 1-((N-Methylamino)methyl-N-(2-(2-thieny)ethyl))5-chloro tetralin hydrochloride] are 198 nM and 55.
On the same counts, the results for `c1ccc(C2CCN(CC3CCCc4c3ccc3c4OCO3)C2)cc1` (stereo not shown) [Example 143a, 5,6-Methylenedioxy-1-(3-phenylpyrrolidino-1-methyl) tetralin methanesulfonate] are 51 nM and 43.
In the case of `COc1cccc2c1CCCC2CN1CCC(c2cccs2)C1` (stereo not shown) [Example 146, hydrochloride], the Ki in test [5] turned out to be 170 nM. The “alpha-2 - Selectivity Ki alpha-1/Ki alpha-2” value in test [6] worked out at 35.
`Fc1ccc2c(c1)CCCC2CN1CCC(c2ccccc2)C1` (stereo not shown) [Example 148, 6-Fluoro-1-(3-phenylpyrrolidino-1-methyl) tetralin methanesulfonate]: the Ki in test [5] came out at 126 nM. For the same molecule, the “alpha-2 - Selectivity Ki alpha-1/Ki alpha-2” value in test [6] was 19.
Consider `Fc1ccc2c(c1)CCCC2CN1CCC(c2cccs2)C1` (stereo not shown) [Example 149, 6-Fluoro-1-(3-(2-thienyl)pyrrolidino-1-methyl) tetralin methanesulfonate], for which the “alpha-2 - Selectivity Ki alpha-1/Ki alpha-2” value in test [6] was 45.
For `COc1ccc2c(c1)CCC2CN1CCC(c2cccs2)C1` (stereo not shown) [Example 151, 5-Methoxy-1-(3-(2-thienyl)pyrrolidino-1-methyl) indane hydrochloride], the Ki in test [5] came to 177 nM. Also, the “alpha-2 - Selectivity Ki alpha-1/Ki alpha-2” value in test [6] was 71.
Regarding `COc1ccc2c(c1)CCC2CN1CCC(c2cccc(F)c2)C1` (stereo not shown) [Example 153, 5-Methoxy-1-(3-(m-fluorophenyl)pyrrolidino-1-methyl) indane hydrochloride], the Ki in test [5] came out at 58 nM. Also, in test [6], the “alpha-2 - Selectivity Ki alpha-1/Ki alpha-2” value is recorded as 7.
`Nc1ccc2c(c1)CCCC2CN1CCC(c2ccccc2)C1` (stereo not shown) [Example 156, 6-Amino-1-(3-phenylpyrrolidino-1-methyl) tetralin dihydrochloride]: the Ki in test [5] stood at 125 nM. The “alpha-2 - Selectivity Ki alpha-1/Ki alpha-2” value in test [6] is 21.
On the same counts, the results for `CN(CCc1cccc(F)c1)CC1CCCc2c1ccc1c2OCCO1` (stereo not shown) [Example 167, 1-((N-Methylamino)methyl-N-(2-m-fluorophenethyl))-5,6-ethylenedioxy tetralin methanesulfonate] are 357 nM and 85.
On the same counts, the results for `CN(c1ccc2c(c1)CCCC2CN1CCC(c2ccccc2)C1)S(C)(=O)=O` (stereo not shown) [Example 193, 6-(N-methylmethylsulfonamido)-1-(3-phenylpyrrolidino-1methyl)tetralin hydrochloride] are 121 nM and 93.
